# Assays:
# [1] = Plasma stability in human assessed as compound remaining at 100 uM measured after 120 mins by LC-MS/MS analysis relative to control; format: ADME, cell-free; conditions: read-out: Stability
# MCF7 [2] = experiment: Induction of cell cycle arrest in human MCF7 cells assessed as G2 phase cells at 1 uM measured after 48 hrs by flow cytometry analysis (reference value: 31.8 %); format: functional
# [3] = Metabolic stability in human liver microsomes assessed as compound remaining at 100 uM measured after 60 mins by LC-MS/MS analysis; format: ADME, Microsome; conditions: read-out: Stability
# MCF7 [4] = experiment: Induction of apoptosis in human MCF7 cells assessed as viable cells at 0.25 uM incubated for 48 hrs by Annexin-V-FITC/PI staining based flow cytometric analysis (reference value: 97 %); format: functional
# [5] = AUClast in Sprague-Dawley rat at 3 mg/kg, iv by LC-MS/MS analysis; format: ADME, organism-based; set-up: time 0 - last, dose 3 mg/kg, route iv; conditions: in vivo
# MCF7 [6] = experiment: Induction of apoptosis in human MCF7 cells assessed as early apoptotic cells at 0.10 uM incubated for 48 hrs by Annexin-V-FITC/PI staining based flow cytometric analysis (reference value: 2.83 %); format: functional; conditions: dose 0.1 µM
# MCF7 [7] = experiment: Induction of apoptosis in human MCF7 cells assessed as late apoptotic cells at 0.50 uM incubated for 48 hrs by Annexin-V-FITC/PI staining based flow cytometric analysis (reference value: 0.019 %); format: functional; conditions: dose 0.5 µM
# [8] = AUCinfinity in Sprague-Dawley rat at 10 mg/kg, po by LC-MS/MS analysis; format: ADME, organism-based; set-up: time infinity, dose 10 mg/kg, route po; conditions: in vivo
# CYP1A2 = molecular target: T1, CYP1A2 (Homo sapiens, UniProt P05177); experiment: Inhibition of CYP1A2 in human liver microsomes at 10 uM preincubated for 10 mins followed by addition of NADPH-regenerating system and measured after 15 mins by LC-MS/MS analysis relative to control; format: ADME, Microsome; conditions: time 25 min
# T1 sequence (P05177 whole entry): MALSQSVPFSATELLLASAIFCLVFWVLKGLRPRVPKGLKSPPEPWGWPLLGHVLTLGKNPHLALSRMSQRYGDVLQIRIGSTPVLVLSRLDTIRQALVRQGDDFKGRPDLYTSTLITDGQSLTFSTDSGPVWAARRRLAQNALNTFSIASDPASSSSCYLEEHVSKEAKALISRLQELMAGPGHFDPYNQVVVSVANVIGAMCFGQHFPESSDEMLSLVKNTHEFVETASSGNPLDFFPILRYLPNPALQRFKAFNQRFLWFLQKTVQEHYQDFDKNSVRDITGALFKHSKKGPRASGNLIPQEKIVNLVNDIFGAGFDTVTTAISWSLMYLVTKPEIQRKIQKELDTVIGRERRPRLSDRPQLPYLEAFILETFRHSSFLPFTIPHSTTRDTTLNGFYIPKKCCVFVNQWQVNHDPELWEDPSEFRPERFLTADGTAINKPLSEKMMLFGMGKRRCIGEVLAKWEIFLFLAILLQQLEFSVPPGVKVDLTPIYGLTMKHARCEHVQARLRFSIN
# MCF7 [9] = experiment: Induction of apoptosis in human MCF7 cells assessed as early apoptotic cells at 2.5 uM incubated for 48 hrs by Annexin-V-FITC/PI staining based flow cytometric analysis (reference value: 2.83 %); format: functional
# [10] = Metabolic stability in human liver microsomes assessed as half-life at 100 uM measured upto 60 mins in the presence of NADPH by LC-MS/MS analysis; format: ADME, Microsome
# MCF7 [11] = experiment: Induction of cell cycle arrest in human MCF7 cells assessed as greater G1 phase cells at 1 uM measured after 48 hrs by flow cytometry analysis (reference value: 0.78 %); format: functional
# [12] = Half-life in Sprague-Dawley rat at 3 mg/kg, iv by LC-MS/MS analysis; format: ADME, organism-based; conditions: in vivo
# MCF7 [13] = experiment: Induction of apoptosis in human MCF7 cells assessed as late apoptotic cells at 1 uM incubated for 48 hrs by Annexin-V-FITC/PI staining based flow cytometric analysis (reference value: 0.019 %); format: functional
# CYP2C9 = CYP2C9 (Homo sapiens, UniProt P11712); experiment: Inhibition of CYP2C9 in human liver microsomes at 10 uM preincubated for 10 mins followed by addition of NADPH-regenerating system and measured after 15 mins by LC-MS/MS analysis relative to control; format: ADME, Microsome; conditions: time 25 min
# MDA-MB-231 = experiment: Antiproliferative activity against human MDA-MB-231 cells assessed as cell growth inhibition incubated for 5 days by MTT assay; format: functional, cell-based; conditions: MDA-MB-231, 120 h
# [14] = Tmax in Sprague-Dawley rat at 10 mg/kg, po by LC-MS/MS analysis; format: ADME, organism-based; conditions: in vivo
# MCF7 [15] = experiment: Induction of cell cycle arrest in human MCF7 cells assessed as S phase cells at 2.5 uM measured after 48 hrs by flow cytometry analysis (reference value: 9.31 %); format: functional
# MCF7 [16] = experiment: Induction of apoptosis in human MCF7 cells assessed as total apoptotic cells at 1 uM incubated for 48 hrs by Annexin-V-FITC/PI staining based flow cytometric analysis relative to control; format: functional
# MCF7 [17] = experiment: Induction of cell cycle arrest in human MCF7 cells assessed as S phase cells at 0.10 uM measured after 48 hrs by flow cytometry analysis (reference value: 9.31 %); format: functional; conditions: dose 0.1 µM
# MCF7 [18] = experiment: Induction of cell cycle arrest in human MCF7 cells assessed as greater G1 phase cells at 0.50 uM measured after 48 hrs by flow cytometry analysis (reference value: 0.78 %); format: functional; conditions: dose 0.5 µM
# MCF7 [19] = experiment: Induction of cell cycle arrest in human MCF7 cells assessed as greater G1 phase cells at 2.5 uM measured after 48 hrs by flow cytometry analysis (reference value: 0.78 %); format: functional
# MCF7 [20] = experiment: Induction of cell cycle arrest in human MCF7 cells assessed as S phase cells at 0.50 uM measured after 48 hrs by flow cytometry analysis (reference value: 9.31 %); format: functional; conditions: dose 0.5 µM
# MCF7 [21] = experiment: Induction of cell cycle arrest in human MCF7 cells assessed as decrease in G1 phase cells at 1 uM measured after 48 hrs by flow cytometry analysis (reference value: 56.9 %); format: functional; set-up: scale not given: the % may be the effect or the level left
# MCF7 [22] = experiment: Induction of apoptosis in human MCF7 cells assessed as total apoptotic cells at 0.10 uM incubated for 48 hrs by Annexin-V-FITC/PI staining based flow cytometric analysis relative to control; format: functional; conditions: dose 0.1 µM
# BT-474 = experiment: Antiproliferative activity against human BT-474 cells assessed as cell growth inhibition incubated for 5 days by MTT assay; format: functional, cell-based; conditions: BT-474, 120 h
# MCF7 [23] = experiment: Induction of cell cycle arrest in human MCF7 cells assessed as decrease in G1 phase cells at 0.50 uM measured after 48 hrs by flow cytometry analysis (reference value: 56.9 %); format: functional; set-up: scale not given: the % may be the effect or the level left; conditions: dose 0.5 µM
# MCF7 [24] = experiment: Induction of apoptosis in human MCF7 cells assessed as viable cells at 1 uM incubated for 48 hrs by Annexin-V-FITC/PI staining based flow cytometric analysis (reference value: 97 %); format: functional
# MCF7 [25] = experiment: Induction of cell cycle arrest in human MCF7 cells assessed as greater G1 phase cells at 0.25 uM measured after 48 hrs by flow cytometry analysis (reference value: 0.78 %); format: functional
# MCF7 [26] = experiment: Induction of apoptosis in human MCF7 cells assessed as late apoptotic cells at 0.10 uM incubated for 48 hrs by Annexin-V-FITC/PI staining based flow cytometric analysis (reference value: 0.019 %); format: functional; conditions: dose 0.1 µM
# Sequence of CYP2C9 (P11712 whole entry): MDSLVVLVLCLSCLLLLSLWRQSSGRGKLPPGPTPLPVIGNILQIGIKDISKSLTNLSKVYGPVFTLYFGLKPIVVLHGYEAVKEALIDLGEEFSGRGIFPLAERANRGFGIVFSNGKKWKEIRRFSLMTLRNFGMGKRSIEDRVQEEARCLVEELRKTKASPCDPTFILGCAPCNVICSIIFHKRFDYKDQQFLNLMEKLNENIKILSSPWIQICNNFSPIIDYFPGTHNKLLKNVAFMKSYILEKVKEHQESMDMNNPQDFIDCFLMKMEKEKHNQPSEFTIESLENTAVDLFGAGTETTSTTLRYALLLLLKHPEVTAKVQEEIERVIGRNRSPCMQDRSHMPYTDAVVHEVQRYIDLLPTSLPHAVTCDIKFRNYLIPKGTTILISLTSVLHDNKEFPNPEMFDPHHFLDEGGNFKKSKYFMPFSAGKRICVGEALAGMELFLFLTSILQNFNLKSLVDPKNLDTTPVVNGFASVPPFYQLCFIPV
structure (smiles),measurement,setting,value
Cc1cc(Nc2nc(NCc3ccc(F)cc3F)nc3c2cnn3C2CCOCC2)n[nH]1,"remaining at 2 h, 100 µM",[1],107%
same,Activity,MCF7 [2],58.3%
same,"remaining at 1 h, 100 µM",[3],106%
same,Activity,MCF7 [4],67.1%
same,AUC(0-t),[5],1070 ng·h/mL
same,Activity,MCF7 [6],19.3%
same,Activity,MCF7 [7],7.58%
same,AUC(0-inf),[8],301 ng·h/mL
same,"inhibition at 0.25 h, 10 µM",CYP1A2,21.2%
same,Activity,MCF7 [9],68.5%
same,half-life at 100 µM,[10],0.493 h
same,Activity,MCF7 [11],0.61%
same,half-life,[12],1.05 h
same,Activity,MCF7 [13],6.84%
same,"inhibition at 0.25 h, 10 µM",CYP2C9,25.4%
same,IC50,MDA-MB-231,2880 nM
same,Tmax,[14],1.33 h
same,Activity,MCF7 [15],21.6%
same,Activity,MCF7 [16],71.84%
same,Activity,MCF7 [17],7.46%
same,Activity,MCF7 [18],1.34%
same,Activity,MCF7 [19],0.87%
same,Activity,MCF7 [20],16.9%
same,Activity,MCF7 [21],21.5%
same,Activity,MCF7 [22],24.04%
same,IC50,BT-474,2350 nM
same,Activity,MCF7 [23],36.2%
same,Activity,MCF7 [24],27.5%
same,Activity,MCF7 [25],0.68%
same,Activity,MCF7 [26],4.74%
